Entries after “also recorded” stand apart in the source; their conditions may differ. Structures can show the parent of a compound that is named as a salt. Values belong to the compound of their own block, whether it stands above or below them.
How the values were obtained:
Assay type in all cases: physicochemical
[1] = Stability determination (thermal stability and photostability, HPLC purity, appearance, XRPD); details: for XRPD: crystalline form found; for crystalline form transformation (in words): high temperature and light exposure
Protocol: (§1) The stability and solubility of the crystalline free form of the compound of formula (I) or the basic salt thereof of the present application were determined by HPLC.
An appropriate amount of the sample was placed in a vial and left to stand at 50 °C, 80 °C or 50 °C & 75% RH (open) for 7 days to evaluate thermal stability. An appropriate amount of the sample was placed in a transparent vial, […] evaluation under conditions of overall near-ultraviolet energy of 1.2 * 10^6 Lux·hr and no less than 200 W·hr/m2.

[2] = Solubility determination (equilibrium solubility, 24 hrs stirring at room temperature, HPLC); details: for Equilibrium solubility: target concentration 2000 µg/mL, 24 hrs; for pH24 hrs: pH of the filtrate after 24 hrs
Protocol: as §1
The desired amount of the compound was weighed into a glass vial, and the desired amount of a vehicle was added. A stir bar was added to the vial, and the mixture was stirred at room temperature for 24 hrs. After 24 hrs, the appearance of the sample was observed. An appropriate amount of the sample was filtered through a PVDF 0.45 µm filter membrane, and the filtrate was collected. The pH value of the filtrate was determined, and the sample was diluted with MeOH. The diluted sample was injected into an HPLC system to determine the concentration.

[3] = Hygroscopic behavior test by dynamic vapor sorption (DVS)
Excerpt: The experimental method of characterizing the crystalline free form of the compound of formula (I) or the basic salt thereof using dynamic vapor sorption (DVS) is as follows: a small amount of the crystalline sample was placed in a precision sample tray that was compatible with the instrument; after the sample was loaded, the sample tray was placed into the instrument for analysis. In this patent, the instruments used for dynamic vapor sorption were all the DVS Intrinsic plus model, and the following experimental parameters were set: nitrogen was used as the carrier gas, a constant temperature of 25 °C was set, the rate of mass percentage change over a unit of time (dm/dt) = 0.002%/min was used as a criterion for determining if equilibrium is reached, and the program humidity change cycle was set to 50-95-0-95-50% RH; within the range of 0-90% RH, a change of 10% RH was taken as a step, and within the range of 90% RH-95% RH, a change of 5% RH was taken as a step.
In the present invention, the hygroscopic weight increases (hygroscopic weight increase/weight before hygroscopy * 100%) of various crystalline forms under various relative humidity conditions were determined using the dynamic vapor sorption method, and the hygroscopicity of different crystalline compounds was evaluated.

[4] = 50 °C, 50 °C/75% RH or brown light exposure
[5] = Aluminum foil light exposure control, 9.2 days
[6] = Brown vial light exposure control, 9.2 days
[7] = Transparent light exposure, 9.2 days
[8] = pH 4.7, 50 mM acetic acid buffer
[9] = pH 6.8, 50 mM phosphoric acid buffer
[10] = Relative humidity 0.0 % at 25 °C
[11] = Relative humidity 10.0 % at 25 °C
[12] = Relative humidity 20.0 % at 25 °C
[13] = Relative humidity 30.0 % at 25 °C
[14] = Relative humidity 40.0 % at 25 °C
[15] = Relative humidity 50.0 % at 25 °C
[16] = Relative humidity 60.0 % at 25 °C
[17] = Relative humidity 70.0 % at 25 °C
[18] = Relative humidity 80.0 % at 25 °C

Appearance ([1]; 50 °C, 7 days): White powder
Purity (%) ([1]; 50 °C, 7 days): 99.45%
Appearance ([1]; 50 °C/75%RH, 7 days): White powder
Purity (%) ([1]; 50 °C/75%RH, 7 days): 99.46%
Appearance ([1]; 80 °C, 7 days): White powder
Purity (%) ([1]; 80 °C, 7 days): 99.34%
Appearance [1, 5]: White powder
Purity (%) [1, 5]: 99.51%
Appearance [1, 6]: White powder
Purity (%) [1, 6]: 99.50%
Appearance ([1]; Initial, 0 days): White powder
Purity (%) ([1]; Initial, 0 days): 99.38%
Appearance [1, 7]: White powder
Purity (%) [1, 7]: 99.22%
XRPD ([1]; 50 °C, 7 days): Crystalline form A of disodium salt
XRPD ([1]; 50 °C/75%RH, 7 days): Crystalline form A of disodium salt
XRPD ([1]; 80 °C, 7 days): Crystalline forms A + B of disodium salt
XRPD [1, 5]: Crystalline form A of disodium salt
XRPD [1, 6]: Crystalline form A of disodium salt
XRPD ([1]; Initial, 0 days): Crystalline form A of disodium salt
XRPD [1, 7]: Crystalline forms A + B of disodium salt
Equilibrium solubility ([2]; FaSSGF): 22 µg/mL
Equilibrium solubility ([2]; FaSSIF): 303 µg/mL
Equilibrium solubility ([2]; FeSSIF): > 2000 µg/mL
Equilibrium solubility ([2]; Water, room temperature): > 2000 µg/mL
Equilibrium solubility ([2]; pH 1.2, HCl 100 mM): 1120 µg/mL
Equilibrium solubility [2, 8]: 25 µg/mL
Equilibrium solubility [2, 9]: 34 µg/mL
pH24 hrs ([2]; FaSSGF): 1.73
pH24 hrs ([2]; FaSSIF): 6.93
pH24 hrs ([2]; FeSSIF): 7.95
pH24 hrs ([2]; Water): 9.61
pH24 hrs ([2]; pH 1.2, HCl 100 mM): 1.01
pH24 hrs [2, 8]: 4.61
pH24 hrs [2, 9]: 6.88
Hygroscopic weight increase (%) [3, 10]: 0.00%
Hygroscopic weight increase (%) [3, 11]: 2.40%
Hygroscopic weight increase (%) [3, 12]: 7.45%
Hygroscopic weight increase (%) [3, 13]: 9.28%
Hygroscopic weight increase (%) [3, 14]: 10.62%
Hygroscopic weight increase (%) [3, 15]: 11.64%
Hygroscopic weight increase (%) [3, 16]: 12.43%
Hygroscopic weight increase (%) [3, 17]: 13.25%
Hygroscopic weight increase (%) [3, 18]: 14.59%
crystalline form changes after DVS testing [3]: no crystalline form changes
weight increased ([3]; at 80% RH): more than 10%
SMILES: Cc1c(NC(=O)c2cc(C3CC3)c(CN3CCCC[C@H]3C(=O)O)cn2)cccc1-c1cccc(NC(=O)c2cc(C3CC3)c(CN3CCCC[C@H]3C(=O)O)cn2)c1C [crystalline form A of disodium salt hydrate] [(2S,2'S)-1,1'-(((((2,2'-dimethyl-[1,1'-biphenyl]-3,3'-diyl)bis(azanediyl))bis(carbonyl))bis(4-cyclopropylpyridine-6,3-diyl))bis(methylene))bis(piperidine-2-carboxylic acid)]
physical and chemical stability (in words) [1, 4]: relatively high physical and chemical stability
crystalline form transformation (in words) [1]: underwent crystalline form transformation; also recorded: undergoes crystalline form transformation
chemical stability (in words) ([1]; various stability testing conditions, incl. high temperature and light exposure): good chemical stability; also recorded: relatively high chemical stability

Appearance ([1]; 50 °C, 7 days): White powder
Purity (%) ([1]; 50 °C, 7 days): 92.11%
Appearance ([1]; 50 °C/75%RH, 7 days): White powder
Purity (%) ([1]; 50 °C/75%RH, 7 days): 92.97%
Appearance ([1]; 80 °C, 7 days): White powder
Purity (%) ([1]; 80 °C, 7 days): 90.77%
Appearance [1, 5]: White powder
Purity (%) [1, 5]: 89.50%
Appearance [1, 6]: White powder
Purity (%) [1, 6]: 88.10%
Appearance ([1]; Initial, 0 days): White powder
Purity (%) ([1]; Initial, 0 days): 91.23%
Appearance [1, 7]: White powder
Purity (%) [1, 7]: 83.10%
XRPD ([1]; 50 °C, 7 days): Crystalline form B of disodium salt
XRPD ([1]; 50 °C/75%RH, 7 days): Crystalline form B of disodium salt
XRPD ([1]; 80 °C, 7 days): Crystalline form B of disodium salt
XRPD [1, 5]: Crystalline form B of disodium salt
XRPD [1, 6]: Crystalline form B of disodium salt
XRPD ([1]; Initial, 0 days): Crystalline form B of disodium salt
XRPD [1, 7]: Crystalline form B of disodium salt
sensitivity to light (in words) ([1]; light exposure): sensitive to light exposure
Equilibrium solubility ([2]; FaSSGF): 485 µg/mL
Equilibrium solubility ([2]; FaSSIF): 474 µg/mL
Equilibrium solubility ([2]; FeSSIF): ≥ 2000 µg/mL
Equilibrium solubility ([2]; Water, room temperature): ≥ 2000 µg/mL
Equilibrium solubility ([2]; pH 1.2, HCl 100 mM): ≥ 2000 µg/mL
Equilibrium solubility [2, 8]: 135 µg/mL
Equilibrium solubility [2, 9]: 194 µg/mL
pH24 hrs ([2]; FaSSGF): 1.72
pH24 hrs ([2]; FaSSIF): 6.93
pH24 hrs ([2]; FeSSIF): 6.90
pH24 hrs ([2]; Water): 9.96
pH24 hrs ([2]; pH 1.2, HCl 100 mM): 0.95
pH24 hrs [2, 8]: 4.92
pH24 hrs [2, 9]: 7.03
solubility (in words) ([2]; various pH conditions, buffers and biological medium solutions): excellent solubility
SMILES: Cc1c(NC(=O)c2cc(C3CC3)c(CN3CCCC[C@H]3C(=O)O)cn2)cccc1-c1cccc(NC(=O)c2cc(C3CC3)c(CN3CCCC[C@H]3C(=O)O)cn2)c1C [crystalline form B of disodium salt anhydrate] [(2S,2'S)-1,1'-(((((2,2'-dimethyl-[1,1'-biphenyl]-3,3'-diyl)bis(azanediyl))bis(carbonyl))bis(4-cyclopropylpyridine-6,3-diyl))bis(methylene))bis(piperidine-2-carboxylic acid)]
physical and chemical stability (in words) [1, 4]: relatively high physical and chemical stability
crystalline form transformation (in words) [1]: no crystalline form transformation was observed
physical stability (in words) ([1]; stability testing conditions, incl. high temperature and high humidity): good physical stability; also recorded: relatively high physical stability

Appearance ([1]; 50 °C, 7 days): White powder
Purity (%) ([1]; 50 °C, 7 days): 98.31%
Appearance ([1]; 50 °C/75%RH, 7 days): White powder
Purity (%) ([1]; 50 °C/75%RH, 7 days): 98.43%
Appearance ([1]; 80 °C, 7 days): White powder
Purity (%) ([1]; 80 °C, 7 days): 97.90%
Appearance [1, 5]: White powder
Purity (%) [1, 5]: 98.51%
Appearance ([1]; Initial, 0 days): White powder
Purity (%) ([1]; Initial, 0 days): 98.42%
Appearance [1, 7]: White powder
Purity (%) [1, 7]: 97.91%
XRPD ([1]; 50 °C, 7 days): Free-form crystalline form C
XRPD ([1]; 50 °C/75%RH, 7 days): Free-form crystalline form C
XRPD ([1]; 80 °C, 7 days): Free-form crystalline form C
XRPD [1, 5]: Free-form crystalline form C
XRPD ([1]; Initial, 0 days): Free-form crystalline form C
XRPD [1, 7]: Free-form crystalline form C
Equilibrium solubility ([2]; FaSSGF): 8.9 µg/mL
Equilibrium solubility ([2]; FaSSIF): 3.21 µg/mL
Equilibrium solubility ([2]; FeSSIF): 5.34 µg/mL
Equilibrium solubility ([2]; Water, room temperature): 3.84 µg/mL
solubility (in words) ([2]; buffer system having a pH of 1.2, compared to the other test conditions): improved solubility
Equilibrium solubility ([2]; pH 1.2, HCl 100 mM): 18.92 µg/mL
Equilibrium solubility [2, 8]: 3.3 µg/mL
Equilibrium solubility [2, 9]: 2.31 µg/mL
pH24 hrs ([2]; FaSSGF): 1.56
pH24 hrs ([2]; FaSSIF): 6.41
pH24 hrs ([2]; FeSSIF): 4.90
pH24 hrs ([2]; Water): 6.78
pH24 hrs ([2]; pH 1.2, HCl 100 mM): 1.30
pH24 hrs [2, 8]: 4.77
pH24 hrs [2, 9]: 6.89
Hygroscopic weight increase (%) [3, 10]: 0.00%
Hygroscopic weight increase (%) [3, 11]: 0.50%
Hygroscopic weight increase (%) [3, 12]: 0.75%
Hygroscopic weight increase (%) [3, 13]: 0.80%
Hygroscopic weight increase (%) [3, 14]: 1.20%
Hygroscopic weight increase (%) [3, 15]: 1.35%
Hygroscopic weight increase (%) [3, 16]: 1.50%
Hygroscopic weight increase (%) [3, 17]: 1.75%
Hygroscopic weight increase (%) [3, 18]: 2.21%
Hygroscopic weight increase (%) ([3]; Relative humidity 90.0 % at 25 °C): 2.95%
crystalline form changes after DVS testing [3]: no crystalline form changes
SMILES: Cc1c(NC(=O)c2cc(C3CC3)c(CN3CCCC[C@H]3C(=O)O)cn2)cccc1-c1cccc(NC(=O)c2cc(C3CC3)c(CN3CCCC[C@H]3C(=O)O)cn2)c1C [free-form crystalline form C, (2S,2'S)-1,1'-(((((2,2'-dimethyl-[1,1'-biphenyl]-3,3'-diyl)bis(azanediyl))bis(carbonyl))bis(4-cyclopropylpyridine-6,3-diyl))bis(methylene))bis(piperidine-2-carboxylic acid)]
physical and chemical stability (in words) ([1]; 50 °C, 50 °C/75% RH (open), 80 °C for 7 days and photostress for 10 days): extremely high physical and chemical stability
hygroscopicity (in words) ([3]; DVS, 25 °C): moderately hygroscopic; also recorded: moderate hygroscopicity

— patent EP4806890A1, “CRYSTALLINE COMPOUND OR BASIC SALT THEREOF, PREPARATION METHOD THEREFOR, AND USE THEREOF” (Abbisko Therapeutics Co., Ltd., priority 2023, dated 2025)
